Laboratory results as given in US6737383B1, “Herbicidal oxadiazolidines” (priority 1999, dated 2004).

Legend:
morningglory = assay: Test B pre/postemergence morningglory; assay type: in vivo, Ipomoea hederacea
How it was run: (§1)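 Herbicidal effect was estimated by eye on a ten-point control scale after plants spent twelve to sixteen days in a greenhouse following soil or foliar treatment. Foliar sprays targeted plants at one to four leaves; all doses were formulated in a non-phytotoxic solvent with surfactant.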

blackgrass = assay: Test B pre/postemergence blackgrass; assay type: in vivo, Alopecurus myosuroides
How it was run: as §1

smallflower flatsedge = assay: Test B flood test smallflower flatsedge; assay type: in vivo, Cyperus difformis
How it was run: (§2)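 Each value is a visual injury score relative to controls, with 10 meaning complete control and 0 no effect. Evaluation took place twelve to sixteen days after the 2-leaf-stage plants were treated and kept in the greenhouse.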

duck salad = assay: Test B flood test duck salad; assay type: in vivo, Heteranthera limosa
How it was run: as §2

cocklebur = assay: Test B pre/postemergence cocklebur; assay type: in vivo, Xanthium strumarium
How it was run: as §1

crabgrass = assay: Test B pre/postemergence crabgrass; assay type: in vivo, Digitaria sanguinalis
How it was run: as §1

wild oat = assay: Test B pre/postemergence wild oat; assay type: in vivo, Avena fatua
How it was run: as §1

purple nutsedge = assay: Test B pre/postemergence purple nutsedge; assay type: in vivo, Cyperus rotundus
How it was run: as §1

wheat = assay: Test B pre/postemergence wheat; assay type: in vivo, Triticum aestivum
How it was run: as §1

soybean = assay: Test B pre/postemergence soybean; assay type: in vivo, Glycine max
How it was run: as §1

corn = assay: Test B pre/postemergence corn; assay type: in vivo, Zea mays
How it was run: as §1

bedstraw = assay: Test B pre/postemergence bedstraw; assay type: in vivo, Galium aparine
How it was run: as §1

surinam grass = assay: Test B pre/postemergence surinam grass; assay type: in vivo, Brachiaria decumbens
How it was run: as §1

rice = assay: Test B flood test rice; assay type: in vivo, Oryza sativa
How it was run: as §2

bamyardgrass = assay: Test B flood test barnyardgrass; assay type: in vivo, Echinochloa crus-galli
How it was run: as §2

giant foxtail = assay: Test B pre/postemergence giant foxtail; assay type: in vivo, Setaria faberii
How it was run: as §1

velvetleaf = assay: Test B pre/postemergence velvetleaf; assay type: in vivo, Abutilon theophrasti
How it was run: as §1

[1] = Postemergence, Rate 62 g/ha, scale 0 to 10, 0 is no effect, 10 is complete control
[2] = Postemergence, Rate 250 g/ha, scale 0 to 10, 0 no effect, 10 complete control
[3] = Preemergence, Rate 62 g/ha, scale 0 to 10, 0 is no effect, 10 is complete control
[4] = Preemergence, Rate 125 g/ha, scale 0 to 10 (0 no effect, 10 complete control)
[5] = Preemergence, Rate 250 g/ha, scale of 0 to 10 where 0 is no effect and 10 is complete control
[6] = Preemergence, Rate 500 g/ha, scale 0 (no effect) to 10 (complete control)
[7] = Rate 125 g/ha, Postemergence, scale 0 to 10, 0 no effect, 10 complete control
[8] = Rate 500 g/ha, Postemergence, 0 to 10 scale (0 no effect, 10 complete control)
[9] = Rate 125 g/ha, Postemergence section (flood test species), scale 0 to 10, 0 no effect, 10 complete control
[10] = flood test, listed under Postemergence, Rate 250 g/ha, scale 0 to 10, 0 no effect, 10 complete control
[11] = Rate 500 g/ha, Postemergence section of Table B, 0 to 10 scale (0 no effect, 10 complete control)

CC(C)Oc1cc(-n2c(=O)on(C(=O)N(c3ccc(F)cc3)C(C)C)c2=O)c(Cl)cc1Cl [Compound 43]
2: Morningglory plant response rating (morningglory; [1]) | Crabgrass plant response rating (crabgrass; [2]) | Crabgrass plant response rating (crabgrass; [7]) | Crabgrass plant response rating (crabgrass; [8]) | Soybean plant response rating (soybean; [1]) | Bedstraw plant response rating (bedstraw; [6]) | Bedstraw plant response rating (bedstraw; [8])
3: Morningglory plant response rating (morningglory; [2]) | Morningglory plant response rating (morningglory; [7]) | Soybean plant response rating (soybean; [2]) | Soybean plant response rating (soybean; [7])
0: Plant response rating, Morningglory (morningglory; [3]) | Plant response rating, Morningglory (morningglory; [4]) | Plant response rating, Morningglory (morningglory; [5]) | Morningglory plant response rating (morningglory; [6]) | Blackgrass plant response rating (blackgrass; [1]) | Blackgrass plant response rating (blackgrass; [2]) | Plant response rating, Blackgrass (blackgrass; [3]) | Plant response rating, Blackgrass (blackgrass; [4]) | Plant response rating, Blackgrass (blackgrass; [5]) | Blackgrass plant response rating (blackgrass; [7]) | S. Flatsedge plant response rating (smallflower flatsedge; [1]) | S. Flatsedge plant response rating (smallflower flatsedge; [9]) | S. Flatsedge plant response rating (smallflower flatsedge; [10]) | Ducksalad plant response rating (duck salad; [1]) | Ducksalad plant response rating (duck salad; [9]) | Ducksalad plant response rating (duck salad; [11]) | Ducksalad plant response rating (duck salad; [10]) | Cocklebur plant response rating (cocklebur; [1]) | Cocklebur plant response rating (cocklebur; [2]) | Plant response rating, Cocklebur (cocklebur; [3]) | Plant response rating, Cocklebur (cocklebur; [4]) | Plant response rating, Cocklebur (cocklebur; [5]) | Cocklebur plant response rating (cocklebur; [6]) | Cocklebur plant response rating (cocklebur; [7]) | Plant response rating, Crabgrass (crabgrass; [3]) | Plant response rating, Crabgrass (crabgrass; [4]) | Plant response rating, Crabgrass (crabgrass; [5]) | Crabgrass plant response rating (crabgrass; [6]) | Wild oats plant response rating (wild oat; [1]) | Wild oats plant response rating (wild oat; [2]) | Plant response rating, Wild oats (wild oat; [4]) | Plant response rating, Wild oats (wild oat; [5]) | Wild oats plant response rating (wild oat; [6]) | Wild oats plant response rating (wild oat; [7]) | Nutsedge plant response rating (purple nutsedge; [1]) | Nutsedge plant response rating (purple nutsedge; [2]) | Plant response rating, Nutsedge (purple nutsedge; [3]) | Plant response rating, Nutsedge (purple nutsedge; [4]) | Plant response rating, Nutsedge (purple nutsedge; [5]) | Nutsedge plant response rating (purple nutsedge; [6]) | Nutsedge plant response rating (purple nutsedge; [7]) | Nutsedge plant response rating (purple nutsedge; [8]) | Wheat plant response rating (wheat; [1]) | Wheat plant response rating (wheat; [2]) | Plant response rating, Wheat (wheat; [3]) | Plant response rating, Wheat (wheat; [4]) | Plant response rating, Wheat (wheat; [5]) | Wheat plant response rating (wheat; [6]) | Wheat plant response rating (wheat; [7]) | Plant response rating, Soybean (soybean; [3]) | Plant response rating, Soybean (soybean; [4]) | Plant response rating, Soybean (soybean; [5]) | Soybean plant response rating (soybean; [6]) | Corn plant response rating (corn; [1]) | Corn plant response rating (corn; [2]) | Plant response rating, Corn (corn; [3]) | Plant response rating, Corn (corn; [4]) | Plant response rating, Corn (corn; [5]) | Corn plant response rating (corn; [6]) | Corn plant response rating (corn; [7]) | Corn plant response rating (corn; [8]) | Bedstraw plant response rating (bedstraw; [1]) | Bedstraw plant response rating (bedstraw; [2]) | Plant response rating, Bedstraw (bedstraw; [3]) | Plant response rating, Bedstraw (bedstraw; [4]) | Plant response rating, Bedstraw (bedstraw; [5]) | Bedstraw plant response rating (bedstraw; [7]) | B. signalgrass plant response rating (surinam grass; [1]) | B. signalgrass plant response rating (surinam grass; [2]) | Plant response rating, B. signalgrass (surinam grass; [3]) | Plant response rating, B. signalgrass (surinam grass; [4]) | Plant response rating, B. signalgrass (surinam grass; [5]) | B. signalgrass plant response rating (surinam grass; [6]) | B. signalgrass plant response rating (surinam grass; [7]) | B. signalgrass plant response rating (surinam grass; [8]) | Rice plant response rating (rice; [1]) | Rice plant response rating (rice; [9]) | Rice plant response rating (rice; [11]) | Rice plant response rating (rice; [10]) | Barnyardgrass plant response rating (bamyardgrass; [1]) | Barnyardgrass plant response rating (bamyardgrass; [9]) | Barnyardgrass plant response rating (bamyardgrass; [11]) | Barnyardgrass plant response rating (bamyardgrass; [10]) | Giant foxtail plant response rating (giant foxtail; [1]) | Giant foxtail plant response rating (giant foxtail; [2]) | Plant response rating, Giant foxtail (giant foxtail; [3]) | Plant response rating, Giant foxtail (giant foxtail; [4]) | Plant response rating, Giant foxtail (giant foxtail; [5]) | Giant foxtail plant response rating (giant foxtail; [6]) | Giant foxtail plant response rating (giant foxtail; [7]) | Giant foxtail plant response rating (giant foxtail; [8]) | Velvetleaf plant response rating (velvetleaf; [1]) | Velvetleaf plant response rating (velvetleaf; [2]) | Plant response rating, Velvetleaf (velvetleaf; [3]) | Plant response rating, Velvetleaf (velvetleaf; [4]) | Plant response rating, Velvetleaf (velvetleaf; [5]) | Velvetleaf plant response rating (velvetleaf; [6]) | Velvetleaf plant response rating (velvetleaf; [7])
1: Blackgrass plant response rating (blackgrass; [6]) | Cocklebur plant response rating (cocklebur; [8]) | Crabgrass plant response rating (crabgrass; [1])
4: Morningglory plant response rating (morningglory; [8]) | Blackgrass plant response rating (blackgrass; [8])
